Experimental data taken from patent US9694060B2, “Peptide vaccines based on the EGFRvIII sequence for the treatment of tumors” (The Board of Trustees of the Leland Stanford Junior …, priority 2012, dated 2017).
No end group written: not given here.

System: HC2 20d2/c cells, an NIH-3T3 cell line engineered to overexpress EGFRvIII
Test: tumor regression / survival experiments in mice bearing EGFRvIII-overexpressing tumors
Assay type: in vivo, NIH Swiss mice
Details: for survival / effectiveness compared with Peptide G:KLH: Table 1 experiments; for survival / effectiveness compared with Peptide G:KLH / percent survival compared with Peptide G:KLH: in words; for percent survival compared with Peptide G:KLH: overall survival data (Table 2)
Method: The conjugated peptide vaccines were tested in tumor regression experiments and survival results were compared among animals treating with one of the conjugated peptide vaccines or KLH only.
Additional experiments were performed repeating the experiments described above.
For all experiments, the peptides were synthesized with the sequence as indicated with the cysteine at the carboxy terminus added for the purposes of conjugation. Peptides were then conjugated at a 1:1 w/w ratio to maleimide activated Keyhole Limpet Hemocyanin (KLH) for 24 hours. Following conjugation, the peptide:KLH conjugate was dialyzed against PBS to remove unconjugated peptide
NIH Swiss mice were inoculated subcutaneously in the right hand flank with 2×10^6 HC2 20d2/c cells, an NIH-3T3 cell line engineered to overexpress EGFRvIII. This cell line has been previously used to study anti-tumor responses to SEQ ID NO:2 conjugated to KLH (Moscatello et al., Cancer Res. 57:1419). On the 7th day following inoculation, mice were immunized with 100 μg of conjugated peptide in 100 μl of PBS emulsified with 100 μl of Freund's complete adjuvant. On the 14th day, mice were immunized with 100 μg of peptide in 100 μl of PBS emulsified with 100 μl of Freund's incomplete adjuvant.

[1] = Table 1, first experiments, s.c. tumor, immunized day 7 and day 14 with 100 μg conjugated peptide in Freund's adjuvant
[2] = Table 2, overall survival data compiled after additional repeat experiments, immunized day 7 and day 14 with 100 μg

Substance	Survival [1] [%]	Survival [2] [%]	survival / effectiveness compared with Peptide G:KLH	percent survival compared with Peptide G:KLH
Keyhole Limpet Hemocyanin [KLH only, reference compound]	47	32	–	–
LEEKKANYVVTDHC:KLH (also: conjugated to KLH, site not given here) [Peptide A: KLH]	90	80	better survival rates	higher percent survival
LEEKKPNYVVTDHC:KLH (also: conjugated to KLH, site not given here) [Peptide P: KLH]	70	65	better survival rates	higher percent survival
LEEKKVNYVVTDHC:KLH (also: conjugated to KLH, site not given here) [Peptide V: KLH]	70	70	better survival rates	higher percent survival
